Experimental data from ChEMBL document CHEMBL1681726, “Discovery of orally available tetrahydroquinoline-based glucocorticoid receptor agonists” (Bioorg Med Chem Lett, 2011).

Experiments:
[1] = target: T1, Androgen receptor (Homo sapiens, UniProt P10275); test: Binding affinity to AR
T1 sequence (P10275 whole entry): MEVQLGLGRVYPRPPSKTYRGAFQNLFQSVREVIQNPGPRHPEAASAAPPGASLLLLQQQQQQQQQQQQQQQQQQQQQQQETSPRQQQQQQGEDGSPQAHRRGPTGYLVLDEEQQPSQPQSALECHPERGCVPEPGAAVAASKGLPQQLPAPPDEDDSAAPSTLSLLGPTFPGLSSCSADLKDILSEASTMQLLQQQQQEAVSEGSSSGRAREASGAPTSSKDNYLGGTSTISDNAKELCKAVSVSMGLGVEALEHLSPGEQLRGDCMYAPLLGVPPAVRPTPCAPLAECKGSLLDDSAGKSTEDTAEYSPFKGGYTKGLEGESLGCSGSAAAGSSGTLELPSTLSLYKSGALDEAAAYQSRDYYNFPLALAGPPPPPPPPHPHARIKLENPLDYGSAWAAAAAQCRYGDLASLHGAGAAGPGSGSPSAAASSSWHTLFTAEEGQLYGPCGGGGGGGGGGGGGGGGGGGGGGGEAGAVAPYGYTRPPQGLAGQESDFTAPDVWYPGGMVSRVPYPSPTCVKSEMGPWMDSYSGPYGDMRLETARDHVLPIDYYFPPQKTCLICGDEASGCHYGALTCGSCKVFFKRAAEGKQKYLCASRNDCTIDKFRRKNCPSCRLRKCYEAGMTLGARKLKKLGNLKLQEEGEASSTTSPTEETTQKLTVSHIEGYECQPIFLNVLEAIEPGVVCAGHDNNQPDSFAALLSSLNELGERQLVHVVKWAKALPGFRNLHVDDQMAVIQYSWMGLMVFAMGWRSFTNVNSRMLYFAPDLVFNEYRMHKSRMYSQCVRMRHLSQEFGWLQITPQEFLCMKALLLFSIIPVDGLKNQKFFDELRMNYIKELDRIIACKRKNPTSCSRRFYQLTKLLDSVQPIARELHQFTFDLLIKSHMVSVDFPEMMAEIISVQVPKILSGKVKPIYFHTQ

[2] = Cmax in Sprague-Dawley rat at 30 mg/kg, po; type: ADME, organism-based; design: dose 30 mg/kg, route oral; settings: in vivo
[3] = target: T2, Glucocorticoid receptor (Homo sapiens, UniProt P04150); test: Displacement of radiolabeled Dexamethasone from GR
T2 sequence (P04150 whole entry): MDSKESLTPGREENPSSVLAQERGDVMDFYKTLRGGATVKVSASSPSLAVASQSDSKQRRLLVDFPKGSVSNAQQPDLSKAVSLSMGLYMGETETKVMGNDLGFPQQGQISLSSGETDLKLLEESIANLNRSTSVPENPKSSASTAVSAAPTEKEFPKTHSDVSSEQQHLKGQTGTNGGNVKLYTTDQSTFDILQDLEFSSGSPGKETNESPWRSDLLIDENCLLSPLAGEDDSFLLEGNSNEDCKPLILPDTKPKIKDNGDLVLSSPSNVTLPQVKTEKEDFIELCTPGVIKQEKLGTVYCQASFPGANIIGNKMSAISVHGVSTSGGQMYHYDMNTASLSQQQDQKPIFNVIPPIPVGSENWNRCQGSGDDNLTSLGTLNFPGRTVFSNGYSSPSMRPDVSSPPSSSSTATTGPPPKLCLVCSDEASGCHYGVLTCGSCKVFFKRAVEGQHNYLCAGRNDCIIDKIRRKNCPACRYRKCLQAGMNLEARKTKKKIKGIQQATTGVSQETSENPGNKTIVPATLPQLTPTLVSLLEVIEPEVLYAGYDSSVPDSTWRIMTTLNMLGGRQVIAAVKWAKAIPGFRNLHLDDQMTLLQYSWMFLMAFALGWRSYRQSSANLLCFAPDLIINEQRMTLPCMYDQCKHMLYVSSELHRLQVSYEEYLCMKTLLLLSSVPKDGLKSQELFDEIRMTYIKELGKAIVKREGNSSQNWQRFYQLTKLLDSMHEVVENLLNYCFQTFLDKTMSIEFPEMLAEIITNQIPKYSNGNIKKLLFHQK

[4] = Metabolic stability in human liver microsomes by HPLC-MS/MS; type: ADME, Microsome
[5] = test system: Mus musculus; test: Antiinflammatory activity in po dosed mouse assessed as carrageenan-induced hind paw edema measured after 3 hrs post dose; type: functional
[6] = target: T2, Glucocorticoid receptor; test: Agonist activity at GR expressed in IL-1beta- and TNFalpha-stimulated HepG2 cells assessed as inhibition of NFKB- or AP-1 mediated E-selectin transcription by luciferase reporter gene assay relative to Dexamethasone; type: functional, cell-based
[7] = target: T2, Glucocorticoid receptor; test: Agonist activity at human GR expressed in NHDF cells assessed as inhibition of IL-6 production by ELISA relative to Dexamethasone; type: functional, cell-based
[8] = Selectivity ratio of Ki for GR to Ki for AR
[9] = AUC in Sprague-Dawley rat at 30 mg/kg, po; type: ADME, organism-based; design: dose 30 mg/kg, route oral; settings: plasma

Work on `C[C@H]1c2c(cc(F)c(-c3cccc4cc[nH]c34)c2F)NC(C)(C)[C@@H]1O` (racemic) yielded a Ki [1] of 1430 nM, a Cmax [2] of 3600 ng/mL and a Ki [3] of 2.5 nM. The half-life [4] was 48 min, the ED50 [5] was 6.6 mg/kg and the IC50 [6] was 1.5 nM. The IC50 [7] was 11 nM, the Ratio Ki [8] was > 500 and the AUC [9] was 35000 ng·h/mL.
